Laboratory results: patent US20240325390A1 (Aerovate Therapeutics, Inc., priority 2020, published 2024)
Structures can show the parent of a compound that is named as a salt. Where two headings read alike, the source gives them in different places. One block for each compound: values may come before it.

Tests used:
clinical [1] = conditions: human, in vivo
[2] = imatinib in plasma, MAD Day 7, mean
clinical [3] = conditions: human, plasma; for AUC / AUC(0-t) / Cmax: inhaled or intranasal; for Cmax / concentration at 7 day: imatinib in plasma, mean; for concentration at 7 day: inhaled

- AUC(0-t) (clinical [1]; inhaled or intranasal, 1 mg): 9.9 ng·h/mL
- Cmax (clinical [1]; inhaled or intranasal, 1 mg): 1.16 ng/mL
- Tmax (clinical [1]; inhaled or intranasal, 1 mg): 3 h
- AUC(0-t) (clinical [1]; inhaled or intranasal, 3 mg): 65.4 ng·h/mL
- Cmax (clinical [1]; inhaled or intranasal, 3 mg): 3.81 ng/mL
- AUC(0-t) (clinical [1]; inhaled or intranasal, 10 mg): 319 ng·h/mL
- Cmax (clinical [1]; inhaled or intranasal, 10 mg): 20.2 ng/mL
- Tmax (clinical [1]; inhaled or intranasal, 10 mg): 0.18 h
- AUC(0-t) (clinical [1]; inhaled or intranasal, 30 mg): 1280 ng·h/mL
- Cmax (clinical [1]; inhaled or intranasal, 30 mg): 73.8 ng/mL
- AUC(0-t) (clinical [1]; inhaled or intranasal, 90 mg): 6670 ng·h/mL
- Cmax (clinical [1]; inhaled or intranasal, 90 mg): 424 ng/mL
- Fluctuation ([2]; inhaled 10 mg AV-101 BID): 78.28%
- Fluctuation ([2]; inhaled 30 mg AV-101 BID): 70.30%
- Fluctuation ([2]; inhaled 90 mg AV-101 BID): 67.18%
- AUC (clinical [3]; 10 mg): 590 ng·h/mL
- AUC(0-t) (clinical [3]; 10 mg): 182 ng·h/mL
- Cmax (clinical [3]; 10 mg, MAD Day 1, inhaled 10 mg AV-101): 24.1 ng/mL
- Cmax (clinical [3]; 10 mg, ss, MAD Day 7, inhaled 10 mg AV-101 BID): 69.2 ng/mL
- AUC (clinical [3]; 30 mg): 1920 ng·h/mL
- AUC(0-t) (clinical [3]; 30 mg): 673 ng·h/mL
- Cmax (clinical [3]; 30 mg, MAD Day 1, inhaled 30 mg AV-101): 88.7 ng/mL
- Cmax (clinical [3]; 30 mg, ss, MAD Day 7, inhaled 30 mg AV-101 BID): 215 ng/mL
- AUC (clinical [3]; 90 mg): 7970 ng·h/mL
- AUC(0-t) (clinical [3]; 90 mg): 2210 ng·h/mL
- Cmax (clinical [3]; 90 mg, MAD Day 1, inhaled 90 mg AV-101): 262 ng/mL
- Cmax (clinical [3]; 90 mg, ss, MAD Day 7, inhaled 90 mg AV-101 BID): 890 ng/mL
- concentration at 7 day (clinical [3]; 10 mg, Cav, MAD Day 7, inhaled 10 mg AV-101 BID): 49.1 ng/mL
- concentration at 7 day (clinical [3]; 10 mg, Cmin, ss, MAD Day 7, inhaled 10 mg AV-101 BID): 31.7 ng/mL
- concentration at 7 day (clinical [3]; 30 mg, Cav, MAD Day 7, inhaled 30 mg AV-101 BID): 160 ng/mL
- concentration at 7 day (clinical [3]; 30 mg, Cmin, ss, MAD Day 7, inhaled 30 mg AV-101 BID): 118 ng/mL
- concentration at 7 day (clinical [3]; 90 mg, Cav, MAD Day 7, inhaled 90 mg AV-101 BID): 664 ng/mL
- concentration at 7 day (clinical [3]; 90 mg, Cmin, ss, MAD Day 7, inhaled 90 mg AV-101 BID): 534 ng/mL
Compound: Cc1ccc(NC(=O)c2ccc(CN3CCN(C)CC3)cc2)cc1Nc1nccc(-c2cccnc2)n1 [AV-101, imatinib]

- AUC(0-t) (clinical [1]; po, 400 mg): 32700 ng·h/mL
- Cmax (clinical [1]; po, 400 mg): 1710 ng/mL
Compound: Cc1ccc(NC(=O)c2ccc(CN3CCN(C)CC3)cc2)cc1Nc1nccc(-c2cccnc2)n1 [Imatinib, imatinib mesylate, reference compound]
